Measurements taken from PMC11882969 (Nature Communications, 2025).
Where “and” joins values, the source holds several entries; their conditions need not be identical. Identical values can stand only once. Marks after values point to notes of the source that are not given here.

What was measured:
[1] = target: CB1 (rCB1) (Rattus norvegicus, UniProt P20272); assay: Radioligand competition binding, [3H]-CP-55,940, rat brain membranes; settings: for radioligand binding, competition curve point (normalized): log[drug], replicate columns
Sequence of CB1 (rCB1) (P20272 whole entry): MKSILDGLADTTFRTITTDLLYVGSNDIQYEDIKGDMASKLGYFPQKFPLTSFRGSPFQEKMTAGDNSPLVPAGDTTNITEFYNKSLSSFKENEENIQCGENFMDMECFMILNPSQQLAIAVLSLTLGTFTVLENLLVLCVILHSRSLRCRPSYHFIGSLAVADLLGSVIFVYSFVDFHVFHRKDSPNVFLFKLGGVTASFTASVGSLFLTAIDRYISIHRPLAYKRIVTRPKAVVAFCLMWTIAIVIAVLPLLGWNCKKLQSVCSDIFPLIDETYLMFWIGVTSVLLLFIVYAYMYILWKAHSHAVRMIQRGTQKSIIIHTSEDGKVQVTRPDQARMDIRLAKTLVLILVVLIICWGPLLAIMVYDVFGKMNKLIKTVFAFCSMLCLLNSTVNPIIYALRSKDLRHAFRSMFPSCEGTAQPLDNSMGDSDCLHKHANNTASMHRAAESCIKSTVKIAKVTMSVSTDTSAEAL

[2] = target: hCB1 (Homo sapiens, UniProt P21554); assay: bioSensAll ebBRET signaling profiling, hCB1; type: cell-based; design: host or cells: HEK293SL cells, transient PEI transfection
Sequence of hCB1 (P21554 whole entry): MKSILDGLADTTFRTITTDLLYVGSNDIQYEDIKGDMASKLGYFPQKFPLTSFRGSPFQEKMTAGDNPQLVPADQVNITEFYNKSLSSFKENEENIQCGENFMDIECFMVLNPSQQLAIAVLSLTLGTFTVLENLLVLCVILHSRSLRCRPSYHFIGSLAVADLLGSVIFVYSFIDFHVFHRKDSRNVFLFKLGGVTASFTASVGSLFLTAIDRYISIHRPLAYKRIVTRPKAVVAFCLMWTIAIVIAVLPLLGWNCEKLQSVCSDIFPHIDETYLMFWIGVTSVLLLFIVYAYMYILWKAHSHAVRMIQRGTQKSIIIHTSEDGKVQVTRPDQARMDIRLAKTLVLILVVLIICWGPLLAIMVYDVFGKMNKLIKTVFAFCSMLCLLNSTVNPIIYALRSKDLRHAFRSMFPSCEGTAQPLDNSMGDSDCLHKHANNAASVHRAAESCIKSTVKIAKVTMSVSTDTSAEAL

## COC(=O)[C@@](C)(NC(=O)c1cc(C)n(-c2cccc(C(F)(F)F)c2)n1)c1cccs1 [‘1350]
[1]; LLE = pIC50 − clogP
  LLE (lipophilic ligand efficiency): 4.7
[1]; from rCB1 affinity
  LE (ligand efficiency): 0.41
[1]; rCB1
  pKi [95% CI]: 9.0 [8.9 – 9.1] and 9.02 [8.9 – 9.1]
[1]; rCB1, M = -6.643
  radioligand binding, competition curve point (normalized): -0.744 and -7.487 and -3.298
[1]; rCB1, M = -7.357
  radioligand binding, competition curve point (normalized): -0.8036 and -4.1 and -0.2377
[1]; rCB1, M = -8.07
  radioligand binding, competition curve point (normalized): 10.2232 and 5.66 and 5.585
[1]; rCB1, M = -8.783
  radioligand binding, competition curve point (normalized): 48.7054 and 44.7118 and 50.1783
[1]; rCB1, M = -9.496
  radioligand binding, competition curve point (normalized): 85.9821 and 91.8301 and 85.5615
[1]; rCB1, M = -10.21
  radioligand binding, competition curve point (normalized): 99.5833 and 109.715 and 87.0469
[1]; rCB1, M = -11.923
  radioligand binding, competition curve point (normalized): 90.0893 and 95.7219 and 98.7077
[1]; rCB1, M = -13.636
  radioligand binding, competition curve point (normalized): 93.4375 and 98.1283
[1]; rCB1 binding
  fold more potent than CP-55,940: 3 fold
[1]; vs parent hit or analog without the change
  fold improvement in CB1R affinity: ~50 fold
[2]; CB1R, Gi/o and G13 subtypes
  fold more relatively efficacious than CP-55,940: approximately 2 fold
[2]; Log [Compound] (M) -4.22186
  Barr2+GRK2 hCB1: 125.5* and 120.6* and 91.27*
  G13 hCB1: 69.1809 and 43.3855
  G15 hCB1: 108.417 and 97.817
  Gi1 hCB1: 103.518 and 79.8531 and 99.2855
  Gi2 hCB1: 106.254 and 114.578
  GoB hCB1: 102.685 and 99.7877 and 104.661
  Gq hCB1: 1156
  Gs hCB1: 6234
  Gz hCB1: 98.9486
[2]; Log [Compound] (M) -4.63927
  Barr2+GRK2 hCB1: 67.7543 and 59.6502 and 97.3886
  G15 hCB1: 104.285 and 89.1373
  Gi1 hCB1: 100.256 and 80.2965 and 97.3658
  Gi2 hCB1: 112.478 and 82.217
  GoB hCB1: 94.4304 and 95.2911 and 109.92
  Gq hCB1: 1096
  Gs hCB1: 6120
  Gz hCB1: 94.4339
[2]; Log [Compound] (M) -5.05788
  G15 hCB1: 99.6047 and 93.8454
  Gi1 hCB1: 101.042 and 84.715 and 96.0704
  Gi2 hCB1: 100.013 and 77.0501
  GoB hCB1: 90.3283 and 96.4543
  Gq hCB1: 1019
  Gs hCB1: 6223
  Gz hCB1: 91.6266
[2]; Log [Compound] (M) -5.47381
  G15 hCB1: 92.6315 and 93.0563
  Gi1 hCB1: 98.0616 and 86.5046 and 101.002
  Gi2 hCB1: 109.888 and 85.6163
  GoB hCB1: 95.0781 and 98.6071
  Gq hCB1: 1081
  Gs hCB1: 6070
  Gz hCB1: 90.4534
[2]; Log [Compound] (M) -5.89285
  Barr2+GRK2 hCB1: 49.9477 and 47.2064 and 86.5049
  G15 hCB1: 99.748 and 91.636
  Gi1 hCB1: 97.1719 and 80.8667 and 101.065
  Gi2 hCB1: 102.458 and 76.0168
  GoB hCB1: 92.8683 and 94.9439 and 107.071
  Gq hCB1: 1042
  Gs hCB1: 6370
  Gz hCB1: 91.8989
[2]; Log [Compound] (M) -6.31878
  G15 hCB1: 101.969 and 92.5566
  Gi1 hCB1: 107.685 and 74.7378 and 104.951
  Gi2 hCB1: 103.614 and 79.7423
  GoB hCB1: 90.0362 and 98.2252 and 101.933
  Gq hCB1: 1039
  Gs hCB1: 6417
  Gz hCB1: 93.1455
[2]; Log [Compound] (M) -6.72585
  G15 hCB1: 105.885 and 89.0321
  Gi1 hCB1: 94.74 and 76.8441 and 99.3323
  Gi2 hCB1: 103.093 and 82.0131
  GoB hCB1: 94.0367 and 93.8848 and 98.7347
  Gq hCB1: 1115
  Gs hCB1: 6298
  Gz hCB1: 84.3779
[2]; Log [Compound] (M) -7.14267
  G15 hCB1: 103.856 and 93.4508
  Gi1 hCB1: 91.7446 and 70.6519 and 99.504
  Gi2 hCB1: 99.8505 and 80.4086
  GoB hCB1: 91.8523 and 88.9368 and 103.009
  Gq hCB1: 1002
  Gs hCB1: 6288
  Gz hCB1: 87.489 and 99.2286
[2]; Log [Compound] (M) -7.55284
  Barr2+GRK2 hCB1: 47.1448 and 43.6966 and 56.3415
  G15 hCB1: 99.9152 and 95.5813
  Gi1 hCB1: 97.765 and 74.1201 and 97.5531
  Gi2 hCB1: 96.1681 and 79.7288
  GoB hCB1: 92.1444 and 89.4924 and 88.6102
  Gq hCB1: 1106
  Gs hCB1: 6295
  Gz hCB1: 88.7355 and 97.954
[2]; Log [Compound] (M) -8
  G13 hCB1: 59.5674 and 29.7847
  G15 hCB1: 98.7928 and 95.555
  Gi1 hCB1: 85.5759 and 80.7558 and 94.7595
  Gi2 hCB1: 103.924 and 86.4729
  GoB hCB1: 93.1096 and 93.0515 and 90.8837
  Gq hCB1: 998
  Gs hCB1: 6325
  Gz hCB1: 81.7172 and 92.9121
